Reference: US9815839B2, “N-(1-(substituted-phenyl)ethyl)-9H-purin-6-amines as PI3K inhibitors” (Incyte Corporation, priority 2010, dated 2017)
Where a name gives a salt, the structure may show the parent alone.

Columns and labels:
[1] = tested on: Pfeiffer cell line (diffuse large B cell lymphoma); assay: Pfeiffer cell proliferation assay; type: cell-based; conditions: Homo sapiens, Pfeiffer, Pfeiffer cells, 3-4 days plus 12 hours [3H]-thymidine incorporation
Experimental: Example C: Pfeiffer Cell Proliferation Assay
Pfeiffer cell line (diffuse large B cell lymphoma) was purchased from ATCC (Manassas, Va.) and maintained in the culture medium recommended (RPMI and 10% FBS). To measure the anti-proliferation activity of the compounds, the Pfeiffer cells were plated with the culture medium (2×10^3 cells/well/per 200 μl) into 96-well ultra-low binding plates (Corning, Corning, N.Y.), in the presence or absence of a concentration range of test compounds. After 3-4 days, [^3H]-thymidine (1 μCi/well) (PerkinElmer, Boston, Mass.) in PBS was then added to the cell culture for an additional 12 hours before the incorporated radioactivity was separated by filtration with water through GF/B filters (Packard Bioscience, Meridenj, Conn.) and measured by liquid scintillation counting with a TopCount (Packard Bioscience).

[2] = molecular target: T1, PI3Kδ (p110δ/p85α) (Homo sapiens, UniProt O00329); assay: PI3Kδ scintillation proximity assay; type: biochemical; conditions: 20 μM ATP, 4 nM PI3Kδ
T1 construct: purchased Millipore (Bedford, Mass.)
Method in brief: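 Radiometric SPA: product captured on WGA beads after EDTA quench and counted, IC50 fitted against log inhibitor concentration. Reactions ran 210 min at room temperature with 4 nM PI3Kδ (p110δ/p85α), 20 μM each PIP2 and ATP plus 33P-ATP, pH 6.7 MOPS buffer, 0.5% DMSO final.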

T1 sequence (O00329 whole entry, species assumed): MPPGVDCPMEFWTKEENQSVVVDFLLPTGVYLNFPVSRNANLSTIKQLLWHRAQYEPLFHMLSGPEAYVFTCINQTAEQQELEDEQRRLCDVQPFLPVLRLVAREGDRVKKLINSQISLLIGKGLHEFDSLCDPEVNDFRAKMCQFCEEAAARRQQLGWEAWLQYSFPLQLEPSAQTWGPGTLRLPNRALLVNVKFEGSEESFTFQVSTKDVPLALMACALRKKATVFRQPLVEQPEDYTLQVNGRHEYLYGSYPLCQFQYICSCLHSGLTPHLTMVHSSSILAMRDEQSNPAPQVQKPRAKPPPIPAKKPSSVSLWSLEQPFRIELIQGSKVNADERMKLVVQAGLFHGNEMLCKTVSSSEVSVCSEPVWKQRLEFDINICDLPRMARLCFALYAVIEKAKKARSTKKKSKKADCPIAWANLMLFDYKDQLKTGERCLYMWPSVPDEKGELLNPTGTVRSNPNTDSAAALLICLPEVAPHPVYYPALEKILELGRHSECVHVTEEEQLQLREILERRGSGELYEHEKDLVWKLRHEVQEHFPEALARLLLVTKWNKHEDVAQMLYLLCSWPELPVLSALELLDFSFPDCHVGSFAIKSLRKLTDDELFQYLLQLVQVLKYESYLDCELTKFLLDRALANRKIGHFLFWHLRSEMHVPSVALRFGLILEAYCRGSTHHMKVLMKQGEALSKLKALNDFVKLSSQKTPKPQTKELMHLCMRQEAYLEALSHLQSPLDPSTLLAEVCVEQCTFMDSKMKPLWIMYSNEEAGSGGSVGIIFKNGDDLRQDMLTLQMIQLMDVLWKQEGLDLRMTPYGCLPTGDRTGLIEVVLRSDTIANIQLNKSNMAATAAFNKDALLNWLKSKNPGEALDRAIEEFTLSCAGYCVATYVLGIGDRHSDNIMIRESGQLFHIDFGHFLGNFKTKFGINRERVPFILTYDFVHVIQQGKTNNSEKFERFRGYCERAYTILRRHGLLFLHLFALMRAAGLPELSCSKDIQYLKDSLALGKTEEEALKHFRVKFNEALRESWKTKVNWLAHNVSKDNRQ
T1 sequence (P27986 whole entry partner, species assumed): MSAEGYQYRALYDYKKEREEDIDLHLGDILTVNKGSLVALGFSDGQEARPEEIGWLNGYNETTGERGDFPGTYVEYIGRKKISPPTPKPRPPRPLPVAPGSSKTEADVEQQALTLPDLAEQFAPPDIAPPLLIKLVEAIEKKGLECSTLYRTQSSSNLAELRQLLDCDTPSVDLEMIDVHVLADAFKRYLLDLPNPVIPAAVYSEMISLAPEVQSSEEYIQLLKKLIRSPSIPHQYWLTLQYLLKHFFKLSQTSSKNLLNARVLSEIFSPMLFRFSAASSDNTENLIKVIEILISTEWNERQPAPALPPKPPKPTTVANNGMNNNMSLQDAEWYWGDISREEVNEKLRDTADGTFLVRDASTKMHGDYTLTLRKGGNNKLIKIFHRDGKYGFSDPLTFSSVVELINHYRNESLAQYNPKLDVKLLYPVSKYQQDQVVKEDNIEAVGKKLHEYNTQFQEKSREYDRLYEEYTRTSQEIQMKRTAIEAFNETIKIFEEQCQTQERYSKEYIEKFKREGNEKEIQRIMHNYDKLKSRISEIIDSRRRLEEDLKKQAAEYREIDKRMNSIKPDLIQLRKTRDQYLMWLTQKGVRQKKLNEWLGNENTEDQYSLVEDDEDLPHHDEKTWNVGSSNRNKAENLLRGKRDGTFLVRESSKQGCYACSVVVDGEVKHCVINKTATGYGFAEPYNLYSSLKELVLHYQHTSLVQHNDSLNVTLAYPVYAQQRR

Row | Compound | IC50 [1] [nM] | IC50 [2] [nM]
1 | COc1c(C(C)Nc2ncnc3[nH]cnc23)cc(Cl)c(Cl)c1C1CN(CC2CC2)C1 (stereo not drawn) [Example 201, N-(1-{4,5-Dichloro-3-[1-(cyclopropylmethyl)azetidin-3-yl]-2-methoxyphenyl}ethyl)-9H-purin-6-amine] | < 100 | < 50
2 | Cc1c(Cl)cc(C(C)Nc2ncnc3[nH]cnc23)c(-c2cccc(F)c2)c1C(N)=O (stereo not drawn) [Example 2, 4-Chloro-3′-fluoro-3-methyl-6-[1-(9H-purin-6-ylamino)ethyl]biphenyl-2-carboxamide] | < 100 | < 50
3 | COc1c(C(C)Nc2ncnc3[nH]cnc23)cc(Cl)c(C)c1-c1cnn(C2CCNCC2)c1 (stereo not drawn) [Example 174, N-{1-[5-chloro-2-methoxy-4-methyl-3-(1-piperidin-4-yl-1H-pyrazol-4-yl)phenyl]ethyl}-9H-purin-6-amine tris(trifluoroacetate)] | < 100 | < 50
4 | CCOc1c(C(C)Nc2ncnc3[nH]cnc23)cc(C#N)c(F)c1-c1cncc(S(C)(=O)=O)c1 (stereo not drawn) [Example 212, 4-Ethoxy-2-fluoro-3-[5-(methylsulfonyl)pyridin-3-yl]-5-[1-(9H-purin-6-ylamino)ethyl]benzonitrile bis(trifluoroacetate)] | 100 to 500 | < 50
5 | COc1c(C(C)Nc2ncnc3[nH]cnc23)cc(Cl)c(C)c1-c1ccc(C(=O)NC2CC2)cc1 (stereo not drawn) [Example 31, 3′-chloro-N-cyclopropyl-6′-methoxy-2′-methyl-5′-[1-(9H-purin-6-ylamino)ethyl]biphenyl-4-carboxamide] | < 100 | < 50
6 | Cc1c(Cl)cc(C(C)Nc2ncnc3[nH]cnc23)c(-c2cc(F)cc(F)c2)c1C(N)=O (stereo not drawn) [Example 19, 4-Chloro-3′,5′-difluoro-3-methyl-6-[1-(9H-purin-6-ylamino)ethyl]biphenyl-2-carboxamide] | < 100 | < 50
7 | Cc1c(Cl)cc(C(C)Nc2ncnc3[nH]cnc23)c(-c2cc(F)cc(F)c2)c1-c1cccnc1 (stereo not drawn) [Example 78, N-[1-(4-chloro-3′,5′-difluoro-5-methyl-6-pyridin-3-ylbiphenyl-2-yl)ethyl]-9H-purin-6-amine] | < 100 | < 50
8 | Cc1noc(C)c1-c1c(C)c(Cl)cc(C(C)Nc2ncnc3[nH]cnc23)c1-c1cccc(F)c1 (stereo not drawn) [Example 71, N-{1-[4-chloro-6-(3,5-dimethylisoxazol-4-yl)-3′-fluoro-5-methylbiphenyl-2-yl]ethyl}-9H-purin-6-amine trifluoroacetate] | < 100 | < 50
9 | COc1c(C(C)Nc2ncnc3[nH]cnc23)cc(Cl)c(C)c1-c1cc(Cl)cc(Cl)c1 (stereo not drawn) [Example 47, N-[1-(3′,5,5′-trichloro-2-methoxy-6-methylbiphenyl-3-yl)ethyl]-9H-purin-6-amine] | > 1000 | 100 to 250
10 | Cc1c(Cl)cc(C(C)Nc2ncnc3[nH]cnc23)c(-c2ccccc2)c1-c1ccc(C#N)cc1 (stereo not drawn) [Example 24, 5′-chloro-6′-methyl-3′-[1-(9H-purin-6-ylamino)ethyl]-1,1′:2′,1″-terphenyl-4-carbonitrile] | 100 to 500 | < 50
11 | Cc1c(Cl)cc(C(C)Nc2ncnc3[nH]cnc23)c(-c2ccccc2)c1-c1ccc(C(=O)NC2CC2)cc1 (stereo not drawn) [Example 16, 5′-chloro-N-cyclopropyl-6′-methyl-3′-[1-(9H-purin-6-ylamino)ethyl]-1,1′:2′,1″-terphenyl-4-carboxamide] | < 100 | < 50
12 | COc1c(C(C)Nc2ncnc3[nH]cnc23)cc(Cl)c(C)c1-c1cccc(F)c1 (stereo not drawn) [Example 28, N-[1-(5-chloro-3′-fluoro-2-methoxy-6-methylbiphenyl-3-yl)ethyl]-9H-purin-6-amine] | 100 to 500 | < 50
13 | Cc1c(Cl)cc(C(C)Nc2ncnc3[nH]cnc23)c(-c2cc(F)cc(F)c2)c1-c1cc(F)nc(F)c1 (stereo not drawn) [Example 80, N-{1-[4-chloro-6-(2,6-difluoropyridin-4-yl)-3′,5′-difluoro-5-methylbiphenyl-2-yl]ethyl}-9H-purin-6-amine] | < 100 | < 50
14 | Cc1noc(C)c1-c1c(C)c(Cl)cc(C(C)Nc2ncnc3[nH]cnc23)c1-c1cc(F)cc(F)c1 (stereo not drawn) [Example 77, N-{1-[4-chloro-6-(3,5-dimethylisoxazol-4-yl)-3′,5′-difluoro-5-methylbiphenyl-2-yl]ethyl}-9H-purin-6-amine] | < 100 | < 50
15 | COc1ncc(-c2c(C)c(Cl)cc(C(C)Nc3ncnc4[nH]cnc34)c2-c2cc(F)cc(F)c2)cn1 (stereo not drawn) [Example 82, N-{1-[4-chloro-3′,5′-difluoro-6-(2-methoxypyrimidin-5-yl)-5-methylbiphenyl-2-yl]ethyl}-9H-purin-6-amine] | < 100 | < 50
16 | COc1c(C(C)Nc2ncnc3[nH]cnc23)cc(Cl)c(C)c1C1CN(C(C)C)C1 (stereo not drawn) [Example 170, N-{1-[5-Chloro-3-(1-isopropylazetidin-3-yl)-2-methoxy-4-methylphenyl]ethyl}-9H-purin-6-amine bis(trifluoroacetate)] | < 100 | < 50
17 | COc1c(C(C)Nc2ncnc3[nH]cnc23)cc(Cl)c(Cl)c1C1CN(CCO)C1 (stereo not drawn) [Example 196, 2-(3-{2,3-Dichloro-6-methoxy-5-[1-(9H-purin-6-ylamino)ethyl]phenyl}azetidin-1-yl)ethanol bis(trifluoroacetate)] | < 100 | < 50
18 | COc1c(C(C)Nc2ncnc3[nH]cnc23)cc(Cl)c(C)c1-c1ccc(NC(C)=O)cc1 (stereo not drawn) [Example 27, N-{3′-chloro-6′-methoxy-2′-methyl-5′-[1-(9H-purin-6-ylamino)ethyl]biphenyl-4-yl}acetamide] | 100 to 500 | < 50
19 | COc1c(C(C)Nc2ncnc3[nH]cnc23)cc(Cl)c(C)c1-c1ccnc(Cl)c1 (stereo not drawn) [Example 98, N-{1-[5-chloro-3-(2-chloropyridin-4-yl)-2-methoxy-4-methylphenyl]ethyl}-9H-purin-6-amine] | < 100 | < 50
20 | COc1c(C(C)Nc2ncnc3[nH]cnc23)cc(Cl)c(C)c1-c1ccc(C#N)cc1 (stereo not drawn) [Example 30, 3′-chloro-6′-methoxy-2′-methyl-5′[1-(9H-purin-6-ylamino)ethyl]biphenyl-4-carbonitrile] | 100 to 500 | < 50
21 | COc1c(C(C)Nc2ncnc3[nH]cnc23)cc(Cl)c(C)c1-c1ccc(C(F)(F)F)cc1 (stereo not drawn) [Example 38, N-{1-[5-chloro-2-methoxy-6-methyl-4′-(trifluoromethyl)biphenyl-3-yl]ethyl}-9H-purin-6-amine] | > 1000 | 100 to 250
22 | COc1c(C(C)Nc2ncnc3[nH]cnc23)cc(Cl)c(C)c1C1CN(C(C)=O)C1 (stereo not drawn) [Example 166, N-{1-[3-(1-Acetylazetidin-3-yl)-5-chloro-2-methoxy-4-methylphenyl]ethyl}-9H-purin-6-amine trifluoroacetate] | < 100 | < 50
23 | Cc1c(Cl)cc(C(C)Nc2ncnc3[nH]cnc23)c(-c2cc(F)cc(F)c2)c1-c1cncnc1 (stereo not drawn) [Example 81, N-[1-(4-chloro-3′,5′-difluoro-5-methyl-6-pyrimidin-5-ylbiphenyl-2-yl)ethyl]-9H-purin-6-amine] | < 100 | < 50
24 | COc1c(C(C)Nc2ncnc3[nH]cnc23)cc(Cl)c(C)c1-c1ccc(F)c(C(=O)N(C)C)c1 (stereo not drawn) [Example 94, 3′-chloro-4-fluoro-6′-methoxy-N,N,2′-trimethyl-5′-[1-(9H-purin-6-ylamino)ethyl]biphenyl-3-carboxamide] | < 100 | < 50
